In series [1] the test system is HIF-1 alpha mRNA. Nature of the series: HIF-1 alpha mRNA in 15PC3 xenograft tumor, different dosing cycle. Particulars: 60.2 x 2 or 3 mg/kg i.v., every third day. It counts as in vivo, human. As to the method: (§1) To evaluate the knockdown efficacy of the HER3 oligomeric compounds in vivo, the female nude mice bearing 15PC3 xenografts developed by subcutaneous injection of 5×10^6 cells/mouse into the right axillary flank, were injected intravenously with the oligomers at various doses and injection schedules (i.e. single dose, qd, q3d, q4d). Scrambled oligomer SEQ ID NO: 236 served as a negative control. 24 hours after the last injection, the mice were euthanized and liver and tumor tissues were collected in RNAlater solution (Ambion). Total RNA was purified from the tissues and the levels of HER3 mRNA were determined by quantitative reverse transcription-real time PCR (qRT-PCR) using the QuantiTect Probe RT-PCR kit (Cat#: 204443; Qiagen). GAPDH mRNA served as an internal control.
(§2) The knockdown efficacy of oligomers was evaluated in vivo in nude mice bearing xenograft tumors derived from 15PC3 cells or A549 cells (NSCLC) or N87 cells (gastric carcinoma) using a similar protocol to the one described above in Example 11. Oligomers were administered by injection every third day in 2-4 doses. Tissues were harvested 3 or 4 days after the last injection.
(§3) Data in Tables 6 and 7 are presented as % HER3 mRNA or HIF-1 alpha mRNA relative to saline treated controls in liver and tumor samples after i.v. dosing of animals with the indicated oligomers.

For series [2], the system named is HCC827 human cell line xenograft. Nature of the series: Tumor growth in mouse xenograft model of human non-small cell lung cancer. In kind it is in vivo. Conditions: at approximately 31 days.
The test system of series [3] is Mouse HER3 mRNA. Nature of the series: HER3 mRNA knockdown in liver of nude mice bearing 15PC3 xenografts, qd x 5 (qRT-PCR). In kind it is in vivo. Particulars: i.v. As to the method: as §1
(§4) 200 ng of total RNA was used in the PCR reaction. The data analyses were performed by using the ABI-7500 PCR Fast System included software.
(§5) Data in Table 5 are presented as % HER3 mRNA levels relative to saline treated controls in liver and tumor samples after i.v. dosing of animals on 5 consecutive days with oligonucleotides in the doses indicated.

Series [4] deals with HCC827 gefitinib-sensitive cells. In words: Colony growth of gefitinib-sensitive HCC827 cells (MTT staining, colony count). It counts as cell-based, human. Particulars: 1 μM, 10 days. How it is done:
(§6) HCC827 lung adenocarcinoma cells (ATCC CRL-2868) were maintained at 37° C. in a humidified atmosphere of 5% CO2 and 95% air in RPMI medium supplemented with 10% fetal bovine serum. To generate gefitinib resistance, cells were treated with increasing amounts of gefitinib (up to 500 nM) for a period of 3 months.
(§7) HCC287 and HCC287R cells were plated in duplicate at 200 cells/well of a 6-well plate and incubated for 24 hours. Cells were treated with 1 μM of ON180 (SEQ ID NO: 180) and incubated for 10 days, after which cells were stained with MTT and the number of colonies counted. Percent of control was calculated for both HCC827 and […] cells.

The test system of series [5] is HER3 mRNA. Nature of the series: HER3 mRNA knockdown in 15PC3 xenograft tumor, different dosing cycle. Conditions: every third day. It counts as in vivo, human. How it is done:
as §1, §2, §3

Series [6] deals with HER3 and P-HER3. Nature of the series: Feedback upregulation of HER3 and P-HER3 by lapatinib in BT474, SKBR3 and MDA453 cells. It counts as cell-based, human. Conditions: lapatinib 1 μM, trastuzumab 10 μg/ml, SEQ ID NO: 180 5 μM, 0-48 hours.
The subject of series [7] is HER3 mRNA. In words: HER3 mRNA knockdown in A549 (NSCLC) xenograft tumor. In kind it is in vivo, human. Conditions: 35 mg/kg, q4d x 3, i.v. As to the method:
as §1, §2, §3

For series [8], the system named is human HER3 mRNA. Nature of the series: HER3 mRNA knockdown in 15PC3 xenograft tumor in nude mice, qd x 5 (qRT-PCR). In kind it is in vivo. Conditions: i.v., relative to saline controls. How it is done: as §1, §4, §5
Series [9] has as its system gefitinib-resistant HCC827 cells. Nature of the series: Colony growth of gefitinib-resistant HCC827R cells (MTT staining, colony count). It counts as cell-based, human. Conditions: 1 μM, 10 days. How it is done: as §6, §7
The subject of series [10] is HER3 mRNA. In words: HER3 mRNA knockdown in liver of xenograft-bearing nude mice, different dosing cycle. Particulars: for Liver HER3 mRNA relative to saline treated controls: 15PC3 xenograft mice, every third day. In kind it is in vivo, mouse. How it is done: as §1
(§8) The knockdown efficacy of oligomers was evaluated in vivo in nude mice bearing xenograft tumors derived from 15PC3 cells or A549 cells (NSCLC) or N87 cells (gastric carcinoma) using a similar protocol to the one described above in Example 11. […] Tissues were harvested 3 or 4 days after the last injection.
as §3

Series [11] concerns HER3 mRNA. Nature of the series: HER3 mRNA knockdown in N87 (gastric carcinoma) xenograft tumor. In kind it is in vivo, human. Particulars: 25 mg/kg, q3d x 5, i.v. How it is done: as §1, §8, §3

In the oligonucleotide strings, read from the 5' end, every base follows the letter of its sugar. An asterisk marks phosphorothioate; unmarked linkages are phosphodiester. Other units and linkages are bracketed, terminal groups are in braces. A string of capitals states the bases alone. l = locked nucleic acid (LNA); [5mC] = 5-methylcytosine; d = 2'-deoxy (DNA)

Take “TSASGScScStSgStScSaScStStSCSTSC (antisense lT*lA*lG*dC*dC*dT*dG*dT*dC*dA*dC*dT*dT*l[5mC]*lT*l[5mC]) [SEQ ID NO: 180, β-D-oxy-LNA/DNA phosphorothioate gapmer antisense oligonucleotide targeting HER3]”: in series [1], the “Tumor Hif1A mRNA relative to saline treated controls” value came out at 101 ± 7.3%. In addition, the “Mean tumor volume reduced vs. saline control” value in series [2] (30 mg/kg i.v.) was found to be 65.5%; in series [2] (45 mg/kg i.v.), 81.3%. In addition, the “HER3 mRNA Liver” value was 1.7 ± 0.6 % of Sal ctrl in [3] (19.8 mg/kg); 3 ± 0.3 % of Sal ctrl in [3] (25.6 mg/kg); 1.6 ± 0.3 % of Sal ctrl in [3] (31.3 mg/kg); 6 ± 5.3 % of Sal ctrl in [3] (66 mg/kg); 1 ± 0.3 % of Sal ctrl in series [3] (85.3 mg/kg). The “reduction in cell growth as compared to the untreated control” value in series [4] is reported as “about 50%”; in [9] it was “greater than 80%”. For the same substance, the “Tumor HER3 mRNA relative to saline treated controls” value in series [5] (60.2 x 4 mg/kg i.v.) turned out to be 54.2 ± 9.1%; in series [5] (60.2 x 2 or 3 mg/kg i.v.) it was 47.1 ± 2.2%. Besides, the “prevention of feedback upregulation of HER3 and P-HER3 expression by lapatinib” value in series [6] is “able to prevent feedback upregulation of HER3 and P-HER3 expression by lapatinib”. The “HER3 Tumor” value in [7] is listed as 54.6 ± 15.2 % saline control; in [11], 46.6 ± 13.4 % saline control. For the same substance, the “HER3 mRNA Tumor” value in series [8] (19.8 mg/kg) amounted to 83.1 ± 19.5%; in series [8] (25.6 mg/kg) it was 65 ± 20.2%; in series [8] (31.3 mg/kg), 37 ± 5.8%; in series [8] (66 mg/kg), 32.3 ± 9.7%; in series [8] (85.3 mg/kg), 25.8 ± 4.1%. Further, the “Liver HER3 mRNA relative to saline treated controls” value in series [10] (60.2 x 4 mg/kg i.v.) stood at 31.8 ± 5%; in series [10] (60.2 x 2 or 3 mg/kg i.v.), 6.9 ± 3.6%. Also, the “HER3 Liver” value in series [10] (A549 xenograft mice, 35 mg/kg, q4d x 3, i.v.) is 31.8 ± 5.7 % saline control; in series [10] (N87 xenograft mice, 25 mg/kg, q3d x 5, i.v.), 24.7 ± 3.1 % saline control.

Source of the values: patent US20120076781A1, “METHODS OF TREATING CANCERS WITH HER3 ANTISENSE OLIGONUCLEOTIDES” (ENZON PHARMACEUTICALS, INC., priority 2009, published 2012).
